This is an account of results in patent US20150299125A1, “PRODRUG BIPYRIDYLAMINOPYRIDINES AS SYK INHIBITORS” (MERCK SHARP & DOHME CORP., priority 2012, published 2015).

By IC50 is commonly meant the concentration at which inhibition is half-maximal. A word on the solubility: it is how much of the substance goes into solution per volume. A lower solubility goes with little dissolved substance.

A short description of data set [1]: Conversion of prodrug to parent in intestine homogenate. In kind it is in vitro ADME. The settings on record: prodrug 1 μM, intestine S9 1 mg protein/mL, 37° C., pH 7.4, 2 h. The procedure:
Conversion of Prodrug to Parent in Intestine Homogenate:
(§1) The likely stability of prodrugs in the intestine can be estimated by incubating a prodrug with intestine homogenate. Incubations of prodrugs (1 μM) with intestine S9 (1 mg protein/mL) were carried out at 37° C. in a phosphate buffer, pH 7.4. Control incubations contained BSA (1.1 mg/mL) instead of intestine S9 microsomes. Aliquots were removed at 0, 5, 15, 30, 60 and 120 min, treated with 4 volumes of acetonitrile containing 2% formic acid and an internal standard, and centrifuged. The supernatants were analyzed by LC-MS/MS for prodrug disappearance and appearance of active drug. The half-life of the prodrug was calculated from the % prodrug remaining at different time points calculated from on the peak area ratio relative to t=0. The amount of active drug generated at the different time points was determined using a standard curve.

Data set [2] deals with T1, recombinant human GST-Syk (Homo sapiens, UniProt P43405).
T1 construct: purchased Carna Biosciences 08-176
In words: Homogeneous Time-Resolved Fluorescence (HTRF) assay for the recombinant human Syk enzyme. It is filed as biochemical. The following applies: recombinant human GST-Syk 5 pM, ATP 25 μM, read-out: IC50. The procedure, abridged:
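HTRF read-out, taken 30 min after adding 2 nM europium anti-pTyr antibody plus 70 nM streptavidin-APC in 40 mM EDTA/Tris pH 7.5, detects peptide phosphorylated by GST-tagged human Syk during a 45-min room-temperature reaction.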
For orientation: TR-FRET usually uses a lanthanide donor and a delayed reading to cut background.

Data set [3] in a line: Conversion of prodrug to parent in liver homogenate. It is filed as in vitro ADME. The settings on record: prodrug 1 μM, liver S9 1 mg protein/mL, 37° C., pH 7.4, 2 h. As for the experimental part:
Conversion of Prodrug to Parent in Liver Homogenate:
as §1, with “liver” for “intestine”

Data set [4] in a line: Solubility in biorelevant fasted state simulated intestinal fluid (FaSSIF). In kind it is physicochemical. The settings on record: 25 °C, fassif, kinetic from dmso stock, Solubility. The procedure, abridged:
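Compound from 10 mM DMSO stock diluted into FaSSIF (maximum solubility approximately 200 μM), equilibrated, then filtered by centrifugation through a 0.45 μm polypropylene membrane. Filtrate and a 100 μM standard analysed by HPLC/DAD; solubility = (sample peak area/standard peak area) × standard concentration.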

A short description of data set [5]: Conversion of prodrug to parent in in vitro biorelevant gastrointestinal tract media. The following applies: 37° C.; for Conversion in SGF, time: simulated gastric fluid. In kind it is in vitro ADME. As for the experimental part:
Conversion of Prodrug to Parent in In Vitro Biorelevant Gastrointestinal Tract Media: The likely stability of prodrugs in the gastrointestinal tract can be estimated by incubating a prodrug in simulated gastric and intestinal fluids; compounds were measured for stability in simulated gastric fluid (SGF), fasted state simulated intestinal fluid (FaSSIF), and fasted state simulated intestinal fluid plus pancreatin (FaSSIF+pancreatin). Prodrug stock solutions were made by diluting 2 mg of compound in 200 μL DMSO. A 10 mg/mL Pancreatin in FaSSIF stock solution was made by dissolving 10 mg Pancreatin in 1 mL FaSSIF. Samples were prepared by diluting 10 μL of compound stock solution into 990 μL of biorelevant media (990 μL SGF, 990 μL FaSSIF, or 940 μL FaSSIF plus 50 μL Pancreatin stock) in a 2 mL HPLC vial and vortexing the mixture for a few seconds. The samples were incubated at 37° C. and aliquots were removed for up to 24 hours and injected directly on an HPLC to determine the conversion of prodrug to active drug. In the case of compound precipitation upon sample preparation, an individual sample was prepared for each desired time point and the entire sample was diluted with a known volume of acetonitrile/water (50/50) to ensure compound dissolution before HPLC analysis.

Values after ≈ are worked out from the molar mass of the structure shown.

In the case of `COCCN(C)C(=O)OC(C)OC(=O)[C@H]1CC[C@H]([C@@](C)(O)c2ccc(-c3cc(C)cc(Nc4cc(C(F)F)ccn4)n3)cn2)CC1` (mixture of isomers) [Example 4-1, 1-{[(2-methoxyethyl)(methyl)carbamoyl]oxy}ethyl trans-4-[(1R)-1-(6-{[4-(difluoromethyl)pyridin-2-yl]amino}-4-methyl-2,3′-bipyridin-6′-yl)-1-hydroxyethyl]cyclohexanecarboxylate], the “Prodrug concentration at 2 h” value in data set [1] turned out to be 0.539 µM; in data set [3], 0 µM. Moreover, the IC50 in data set [2] is 20.7 nM.
In the case of `Cc1cc(Nc2cc(C(F)F)ccn2)nc(-c2ccc([C@](C)(O)[C@H]3CC[C@H](C(=O)OCC[S@@+](C)[O-])CC3)nc2)c1` (single isomer, unassigned) [Example 7-1a], the “Prodrug concentration at 2 h” value was determined as 0.385 µM in data set [1] and 0 µM in data set [3]. Also, the IC50 in data set [2] worked out at 4.2 nM. In data set [4], this molecule had a solubility of 56 µM (≈ 32.1 µg/mL).
`Cc1cc(Nc2cc(C(F)F)ccn2)nc(-c2ccc([C@](C)(O)[C@H]3CC[C@H](C(=O)OCC4CCNCC4)CC3)nc2)c1` [Example 1-21, piperidin-4-ylmethyl trans-4-[(1R)-1-(6-{[4-(difluoromethyl)pyridin-2-yl]amino}-4-methyl-2,3′-bipyridin-6′-yl)-1-hydroxyethyl] cyclohexanecarboxylate]: the “Conversion in FaSSIF + Pancreatin, time” value in data set [5] (3 h) is recorded as 100%, 3 h. For the same molecule, in data set [5] (5 h), the “Conversion in FaSSIF, time” value was 0%, 5 h and the “Conversion in SGF, time” value is recorded as 0%, 5 h. Further, the IC50 in data set [2] was 2.3 nM. Moreover, the concentration in solution in data set [4] (solubility) came to 167 µM (≈ 96.8 µg/mL).
In the case of `CNCCCOC(=O)[C@H]1CC[C@H]([C@@](C)(O)c2ccc(-c3cc(C)cc(Nc4cc(C(F)F)ccn4)n3)cn2)CC1` [Example 1-22, 3-(methylamino)propyl trans-4-[(1R)-1-(6-{[4-(difluoromethyl)pyridin-2-yl]amino}-4-methyl-2,3′-bipyridin-6′-yl)-1-hydroxyethyl] cyclohexanecarboxylate], in data set [5] (3 h), the “Conversion in FaSSIF + Pancreatin, time” value is 100%, 3 h. In data set [5] (5 h), the “Conversion in FaSSIF, time” value was 0%, 5 h and the “Conversion in SGF, time” value is 0%, 5 h. For the same molecule, the IC50 in data set [2] was determined as 1.8 nM. This molecule also registered a solubility in data set [4] of 183 µM (≈ 101 µg/mL).
Turning to `Cc1cc(Nc2cc(C(F)F)ccn2)nc(-c2ccc([C@](C)(O)[C@H]3CC[C@H](C(=O)O[C@H]4CC[C@H](N)CC4)CC3)nc2)c1` [Example 1-23, trans-4-aminocyclohexyl trans-4-[(1R)-1-(6-{[4-(difluoromethyl)pyridin-2-yl]amino}-4-methyl-2,3′-bipyridin-6′-yl)-1-hydroxyethyl] cyclohexanecarboxylate], the “Conversion in FaSSIF + Pancreatin, time” value in data set [5] (3 h) was 100%, 3 h. Besides, in data set [5] (5 h), the “Conversion in FaSSIF, time” value is given as 0%, 5 h and the “Conversion in SGF, time” value is on record as 0%, 5 h. The IC50 in data set [2] is 1.6 nM. This molecule returned a solubility in data set [4] of 131 µM (≈ 75.9 µg/mL).
`Cc1cc(Nc2cc(C(F)F)ccn2)nc(-c2ccc([C@](C)(O)[C@H]3CC[C@H](C(=O)OCOC(=O)OCCCCCCN(C)C)CC3)nc2)c1` [Example 2-7, [({[6-(dimethylamino)hexyl]oxy}carbonyl)oxy]methyl trans-4-[(1R)-1-(6-{[4-(difluoromethyl)pyridin-2-yl]amino}-4-methyl-2,3′-bipyridin-6′-yl)-1-hydroxyethyl]cyclo hexanecarboxylate]: the “Conversion in FaSSIF + Pancreatin, time” value in data set [5] (3 h) is given as 20%, 3 h. Further, in data set [5] (5 h), the “Conversion in FaSSIF, time” value is reported as 0%, 5 h and the “Conversion in SGF, time” value is 0%, 5 h. Besides, the IC50 in data set [2] amounted to 78 nM. The molecule further registered a solubility in data set [4] of 119 µM (≈ 81.4 µg/mL).
Turning to `Cc1cc(Nc2cc(C(F)F)ccn2)nc(-c2ccc([C@](C)(O)[C@H]3CC[C@H](C(=O)OCOC(=O)OCC4CCOCC4)CC3)nc2)c1` [Example 2-9, {[(tetrahydro-2H-pyran-4-ylmethoxy)carbonyl]oxy}methyl trans-4-[(1R)-1-(6-{[4-(difluoromethyl)pyridin-2-yl]amino}-4-methyl-2,3′-bipyridin-6′-yl)-1-hydroxyethyl]cyclo hexanecarboxylate], in data set [5] (3 h), the “Conversion in FaSSIF + Pancreatin, time” value is recorded as 65%, 3 h and the “Conversion in SGF, time” value is listed as 2%, 3 h. In data set [5] (5 h), the “Conversion in FaSSIF, time” value was 0%, 5 h. In addition, the IC50 in data set [2] came out at 27.2 nM.
Consider `CCOCCOCCOC(=O)OC(OC(=O)[C@H]1CC[C@H]([C@@](C)(O)c2ccc(-c3cc(C)cc(Nc4cc(C(F)F)ccn4)n3)cn2)CC1)C(C)C` (stereo partly drawn) [Example 2-17, 1-(1-methylethyl)-3-oxo-2,4,7,10-tetraoxadodec-1-yl trans-4-[(1R)-1-(6-{[4-(difluoromethyl)pyridin-2-yl]amino}-4-methyl-2,3′-bipyridin-6′-yl)-1-hydroxyethyl]cyclo hexanecarboxylate], for which the “Prodrug concentration at 2 h” value in data set [1] stood at 0.371 µM; in data set [3], 0 µM. Moreover, the IC50 in data set [2] was less than 0.5 nM.
In the case of `Cc1cc(Nc2cc(C(F)F)ccn2)nc(-c2ccc([C@](C)(O)[C@H]3CC[C@H](C(=O)OCOC(=O)C4CCNCC4)CC3)nc2)c1` [Example 3-1], in data set [5] (3 h), the “Conversion in FaSSIF + Pancreatin, time” value was 100%, 3 h and the “Conversion in FaSSIF, time” value is given as 100%, 3 h. Further, in data set [5] (5 h), the “Conversion in SGF, time” value was 0%, 5 h. Besides, the half-maximal inhibitory concentration (IC50) in data set [2] was determined as 27 nM. The molecule further yielded a solubility in data set [4] of 147 µM (≈ 91.7 µg/mL).
In the case of `Cc1cc(Nc2cc(C(F)F)ccn2)nc(-c2ccc([C@](C)(O)[C@H]3CC[C@H](C(=O)OCOC(=O)OCCCS(C)(=O)=O)CC3)nc2)c1` [Example 7-2, ({[3-(Methylsulfonyl)propoxy]carbonyl}oxy)methyl trans-4-[(1R)-1-(6-{[4-(difluoromethyl)pyridin-2-yl]amino}-4-methyl-2,3′-bipyridin-6′-yl)-1-hydroxyethyl]cyclohexanecarboxylate], the entries for the “Prodrug concentration at 2 h” value in data set [1] and in data set [3] were 0.092 µM and 0.12 µM, respectively. For the same molecule, the IC50 in data set [2] was found to be 7.5 nM.
For `Cc1cc(Nc2cc(C(F)F)ccn2)nc(-c2ccc([C@](C)(O)[C@H]3CC[C@H](C(=O)OCOC(=O)OCCOCCOCCOCCOP(=O)(O)O)CC3)nc2)c1` [Example 8-1, 17,17-Dihydroxy-17-oxido-3-oxo-2,4,7,10,13,16-hexaoxa-17λ^5-phosphaheptadec-1-yl trans-4-[(1R)-1-(6-{[4-(difluoromethyl)pyridin-2-yl]amino}-4-methyl-2,3′-bipyridin-6′-yl)-1-hydroxyethyl]cyclohexanecarboxylate], the “Prodrug concentration at 2 h” value in data set [1] and in data set [3] was 0 µM in each case. The IC50 in data set [2] is less than 0.5 nM. The solubility in data set [4] is 154 µM (≈ 125 µg/mL).
In the case of `Cc1cc(Nc2cc(C(F)F)ccn2)nc(-c2ccc([C@](C)(O)[C@H]3CC[C@H](C(=O)OCOP(=O)(O)O)CC3)nc2)c1` [Example 10-1, (Phosphonooxy)methyl trans-4-[(1R)-1-(6-{[4-(difluoromethyl)pyridin-2-yl]amino}-4-methyl-2,3′-bipyridin-6′-yl)-1-hydroxyethyl]cyclohexanecarboxylate], in data set [5] (5 h), the “Conversion in FaSSIF + Pancreatin, time” value is recorded as 50%, 5 h; the “Conversion in FaSSIF, time” value is reported as 20%, 5 h; the “Conversion in SGF, time” value was 5%, 5 h. Moreover, in data set [2], the IC50 was less than 0.5 nM.
